Measured values from patent US7939541B2, “Intermediates and a process employing the intermediates for the preparation of (3-trifluoromethylsulfonyl)-N-[4-methyl-3-(4-pyridin-3yl-pyrimidin-2ylamino)-phenyl]-benzamide” (Natco Pharma Limited, priority 2004, dated 2011).

Tests used:
[1] = tested on: AKT, ERK and Pi3k in 4910 glioma cells; test: Western blot analysis, 4910; type: cell-based, human; conditions: 24 h
Method: (§1) Western blot analysis of 4910, 5310 and U87 glioma cells and MDAMB231 and ZR71 breast cancer cells in the presence of specified concentrations of compounds were assessed as per standard protocols. Cells were treated with AN019, AN024 or Temozolomide at the specified concentrations. 24 h after treatment, cells were collected and cell lysates extracted. Equal quantities of proteins were fractionated by SDS-PAGE. The fractionated proteins were blotted on to nylon membranes and immunoprobed for AKT, ERK and Pi3k. Breast cancer cell protein isolates were additionally immunoprobed for EGFR, ErbB1, ErbB2 and ErbB3.

[2] = tested on: AKT, ERK and Pi3k in ZR71 breast cancer cells; test: Western blot analysis, ZR71; type: cell-based; conditions: 24 h
Method: as §1

[3] = tested on: K562; test: ED50 and therapeutic index in leukemic mice (K562); type: in vivo; conditions: Mus musculus, K562, po, read-out: ED50 (po) Mice
[4] = tested on: MDAMB231 breast cancer cells; test: In vitro angiogenic assay, MDA-MB-231 conditioned media on human dermal endothelial cells; type: cell-based; conditions: MDA-MB-231 cells, with radiation
Method: (§2) The in vitro angiogenesis of 4910, 5310 and U87 glioma cells and MDAMB231 and ZR71 breast cancer cells in the presence of specified concentrations of compounds were determined as follows, cells (2×10^4/well) were seeded in 8-well chamber slides and were treated with various concentrations of test compounds. After a 24 h incubation period, the conditioned media was removed and added to a 4×10^4 human dermal endothelial cell (monolayer in 8-well chamber slides) and the human dermal endothelial cells were allowed to grow for 72 h. Cells were then fixed in 3.7% formaldehyde and stained with H&E and photographed.

[5] = tested on: Baf3 murine leukemia cells M351T; test: Blast cell count in nude mice implanted with Baf3 M351T cells; type: in vivo; conditions: Baf3M351T; Imatinib 10 mg/kg, AN019 20 mg/kg, AN024 20 mg/kg, oral gavage or ip from day 15; day 42
Description: (§3) Blood smears were obtained via the tail vein or via the femoral vein every 6th day and blast cells counted and graphically represented.
(§4) Abdominal swelling and decrease in activity was monitored daily, blood smear taken via the tail vein or the femoral vein every 6th day and H&E stained as per standard protocols. 42 days after implantation, mice were sacrificed and spleens harvested.
(§5) Blood from tail vein or the femoral vein was taken every 6th day from Baf3 cell implanted mice until day 42.
(§6) Nude mice were intraperitoneally implanted with Baf3 mutant cells (wt, T315I, M351T or E255K). […] Blood was drawn from the femoral vein or tail vein every 6th day and blast cell count determined and graphically represented.

[6] = tested on: U87 glioma cells; test: In vitro angiogenic assay, U87 conditioned media on human dermal endothelial cells; type: cell-based; conditions: with radiation
Method: as §2

[7] = tested on: 4910 human glioma xenograft cells; test: Glioma radiation studies, intracranial tumours; type: in vivo, nude mice
Method: Nude mice were intracranially implanted with 4910 human glioma xenograft cells (1×10^6 cells) intracranially. Ten days after implantation mice were treated with AN019, AN024 or temozolomide with or without radiation (5 Gy/week). The experiment was terminated at day 40 post implantation.

[8] = tested on: pAKT and pERK in glioma and breast cancer cells; test: Western blot analysis of pAKT and pERK, cell line not stated; type: cell-based; conditions: both with and without radiation
Method: as §1

[9] = tested on: Baf3 murine leukemia cells T315I; test: Blast cell count in nude mice implanted with Baf3 T315I cells; type: in vivo; conditions: Baf3T315I; Imatinib 10 mg/kg, AN019 20 mg/kg, AN024 20 mg/kg, oral gavage or ip from day 15; day 42
Description: as §3, §4, §5, §6

[10] = tested on: BCR-Abl, Crk and phospho Stat5AY^694/699 in K562 cells; test: Western blot analysis of K562 cells treated with AN024; type: cell-based, human
Method: Expression levels of BCR-Abl, Crk and phospho Stat5AY^694/699 were determined by western blot analysis in K562 cells treated with various concentrations of AN024 (1, 2.5, 5 or 10 μg/ml) for 12 h.
K562 cells were treated with 1, 2.5, 5, or 10 μg/ml of AN024. After 12 h, cells were collected and total cell lysates were prepared in extraction buffer containing Tris [0.1 M, pH 7.5], Triton-X114 (1.0%), EDTA (10 mM), aprotinin, and phenylmethylsulphonyl fluoride. […] The membranes were probed for 2 h with antibodies against BCR-Abl, Crk and phospho Stat5AY^694/699 per standard protocols. The membranes were subsequently washed three times with PBS to remove excess primary antibodies, incubated with appropriate HRP conjugated secondary antibodies as required, and then developed according to enhanced chemiluminesence protocol (Amersham, Arlington Heights, Ill.).
FIG. 1 illustrates results of this testing. K562 cells were treated with various concentrations of AN024 (1-10 μg/ml). Cell lysates were collected and western blot analysis was performed per standard protocols. Expression levels of BCR-Abl, Crk and Stat5AY^694/699 were determined.

[11] = tested on: K562 luciferase expressing cells; test: Leukemic survival study; type: in vivo, nude mice
Description: K562 luciferase expressing cells were implanted intraperitoneally into nude mice; the mice were scanned using the xenogeny IVIS image station after ip injections of luciferin does determine implantations. Drug treatment was started as in previous studies day 15 after implantation. The animals were given treatment till day 42, after which drug treatment was stopped and survival of the animals determined as per the animal care regulations. […] Drug treatment was withdrawn on day 42 post implantation and survival of animals determined.

[12] = tested on: K562 luc human leukemia cells; test: Luciferase expression in nude mice implanted with K562 luc cells, low dose oral administration; type: in vivo
Description: Five mice were used per group and divided into 24 groups+2 control. All groups were implanted with K562 normal/luc cells. Of the 24 groups, 12 were used for luciferase studies whereas the other 12 were used for blood smear count studies.

[13] = tested on: 4910 glioma cells; test: In vitro angiogenic assay, 4910 conditioned media on human dermal endothelial cells; type: cell-based; conditions: 4910 cells, with radiation
Method: as §2

[14] = in vivo; conditions: mouse
[15] = tested on: K562 cells; test: Nude mice implanted with K562 cells: spleenic enlargement, Crk expression, leukemia growth index; type: in vivo
Description: Mice were sacrificed after a decrease in percent leukemia growth index (LGI) was observed and spleen harvested.
Control mice also developed random subcutaneous tumors showing Crk expression, indicative of the presence of K562 cells.

For `Cc1ccc(NC(=O)c2cccc(S(=O)(=O)C(F)(F)F)c2)cc1Nc1nccc(-c2cccnc2)n1` [AN024, (3-trifluoromethylsulfonyl)-N-[4-methyl-3-(4-pyridin-3yl-pyrimidin-2ylamino)-phenyl]-benzamide], the AKT levels ([1]; 4910, after radiation) was “decrease in AKT levels was enhanced after radiation”, the AKT levels ([1]; 4910, without radiation) was “decrease in AKT levels” and the AKT levels ([2]; ZR71, after radiation) was “decrease in AKT expression”. For the same compound, the PI3k levels ([2]; ZR71, with radiation) was “decrease in PI3k levels”, the AKT levels ([2]; ZR71, without radiation) was “did not show any significant change” and the ED50 [3] was 10 mg/kg. For the same compound, the inhibition of angiogenesis [4] was “only a slight inhibition”, the “blast cell count in blood smears” value [5] was “significant decrease in blast cell count” and the inhibition of angiogenesis [6] was “increase in inhibition after radiation”. For the same compound, the “intracranial tumours (size, appearance)” value ([7]; with radiation (5 Gy/week)) was “well defined surgically respectable tumours”, the “intracranial tumours (size, appearance)” value ([7]; without radiation) was “well defined and not showing diffuse edges” and the pERK levels [8] was “reduction on pERK levels but to a lesser extent than AN019”. For the same compound, the “blast cell count in blood smears” value [9] was “significant decrease in blast cell count”, the “BCR-Abl, Crk and phospho Stat5AY^694/699 protein levels” value ([10]; K562 cells, 1, 2.5, 5 or 10 μg/ml, 12 h, western blot) was “decreased in a dose dependent manner” and the BCR-Abl kinase activity ([10]; K562 cells, 1-10 μg/ml) was “inhibited BCR-Abl kinase activity in a dose dependent manner”. For the same compound, the “blast cell count from blood smears after withdrawal of drug treatment” value ([11]; drug treatment withdrawn on day 42 (FIG. 6C)) was “showed effectiveness after withdrawal of drug treatment”, the “animals showing no signs of leukemia / complete absence of leukemic symptoms” value ([11]; of 10 animals, treatment day 15 to day 42, then withdrawn, AN024 read on day 55) was 8 animals and the “mortality (day post implantation)” value ([11]; treatment day 15 to day 42, then withdrawn) was 38 days. The luciferase expression ([12]; 1 mg/kg) was “did not induce a decrease in luciferase expression”, the luciferase expression ([12]; 5 mg/kg) was “caused a decrease in luciferase expression” and the luciferase expression ([12]; 10 mg/kg) was “caused a decrease in luciferase expression”. For the same compound, the luciferase expression ([12]; 20 mg/kg) was “caused a decrease in luciferase expression”, the inhibition of angiogenesis [13] was “significant inhibition of angiogenesis” and the MTD [14] was 500 mg/kg. The LD50 ([14]; po) was 1440 mg/kg, the “leukemia growth index (LGI)” value ([15]; K562 implanted nude mice) was “caused the regression of LGI” and the “Crk expression in paraffin sections of spleen” value ([15]; immuno-probed spleen sections) was “only basal level expression of Crk expression comparable to negative control”. The Spleenic enlargement ([15]; ip injections, visual inspection of harvested spleen) was “did not show any spleenic enlargement” and the “physiological, phenotypic or behavioral abnormality” value ([15]; treated K562 implanted nude mice) was “no abnormal physiological, phenotypic or behavioral abnormality”.
